The results in this text go back to publication PMC5441580, “GPR40 partial agonist MK-2305 lower fasting glucose in the Goto Kakizaki rat via suppression of endogenous glucose production” (PLoS ONE, 2017).

Several values for one entry are separate records, joined by “and”; a condition that tells them apart may be missing. Equal entries are not always repeated.

One series has as its target T1, Rat PPARδ (Rattus norvegicus, UniProt Q62879).
T1 sequence (Q62879 1-440): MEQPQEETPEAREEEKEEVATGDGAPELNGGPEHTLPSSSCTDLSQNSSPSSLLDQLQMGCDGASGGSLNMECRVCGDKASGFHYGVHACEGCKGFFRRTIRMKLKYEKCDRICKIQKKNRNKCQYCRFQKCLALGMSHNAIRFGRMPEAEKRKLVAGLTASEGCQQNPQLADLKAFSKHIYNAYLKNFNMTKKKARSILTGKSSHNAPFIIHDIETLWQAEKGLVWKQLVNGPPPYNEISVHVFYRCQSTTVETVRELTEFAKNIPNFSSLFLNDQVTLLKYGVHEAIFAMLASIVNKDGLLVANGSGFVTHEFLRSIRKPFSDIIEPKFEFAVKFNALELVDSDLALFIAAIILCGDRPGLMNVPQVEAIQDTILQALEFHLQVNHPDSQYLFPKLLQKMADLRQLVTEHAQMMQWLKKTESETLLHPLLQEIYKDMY
The series is described as follows: cell-based nuclear receptor profiling (Indigo Biosciences), PPARδ. The protocol: Rat PPARα, PPARδ, and PPARγ activities were determined by Indigo Biosciences (State College, PA) cell-based nuclear receptor profiling service.

For the next series, the system named is GK rats. The series is described as follows: OGTT with insulin co-measurement on Day 13 of chronic treatment, parallel set of animals. Format: in vivo, rat. Further details: Change in plasma insulin from baseline during OGTT (delta insulin): unit not given here. The following applies: for Change in plasma insulin from baseline during OGTT (delta insulin): day 13, individual animals. The protocol: On the day of the study, male GK rats were bled via tail snip, and blood glucose was measured via glucometer (OneTouch Ultra, Lifescan Inc., Milpitas, CA). Fed glucose was measured at 8 A.M. (lights on 7 A.M.– 7 P.M.) and used to select and sort animals into treatment groups (n = 8/ GK group, plus n = 6/WKY control group). Animals were then placed into clean cages, and food was removed. After a 5 hr fast, glucose was measured at time = -60 min, followed by administration of vehicle plus or minus compound via oral gavage (PO) at a dosing volume of 5 ml/kg. Dosages from 0.3–10 mg MK-2305 / kg body weight were tested. Both the GK and WKY control groups received vehicle (0.5% methylcellulose). Blood glucose was measured again (time = 0) immediately prior to a dextrose challenge of 1 g/kg at 10 ml/kg dose volume (Dextrose, Hospira Inc., Lake Forrest IL) and then again at 20, 40, 60, and 120 min after the glucose challenge. Insulin was co-measured to test the glucose-dependent secretory response to MK-2305 delivered acutely PO. To capture insulin secretion during the OGTT, blood was collected at t = -60, 0, 20, 40, 60 min post glucose challenge. […] Values of percent inhibition vs. vehicle for each treatment were generated from the AUC data. Maximally efficacious dose (MED) was defined as the minimum dosage generating a maximum inhibition of glucose excursion achieved with this compound in the OGTT assay.
In a parallel set of animals (n = 30) treated with standard diet or MK-2305 at 30 mg/kg diet, an OGTT with insulin co-measurement was performed on Day 13. On the day of OGTT, n = 10 vehicle animals and n = 10 MK-2305-treated animals were administered 0.5% methylcellulose PO at a dosing volume of 5 ml/kg. For an acute comparison, n = 10 vehicle animals were administered MK-2305 at 30 mg/kg PO. The procedure for an acute OGTT was identical to that described above.

Series [1] is described as follows: plasma exposure of the compounds on day 14 of the chronic study. Format: in vivo, rat. The following applies: day 14, similar at fed and fasted time points, GK rats. The protocol: At the start of the study, fed glucose was measured at 8 A.M., and animals were selected and sorted into treatment groups based on ambient glucose (n = 10/male GK group, n = 6/male WKY control group). Animals were then placed on diet (LabDiet # 5001) that contained, or was devoid of, compound at the daily doses indicated. Fed blood glucose, food intake, and body weights were determined on days 0, 1, 3, 7, and 14 of study at 8 A.M. On days 7 and 14, food was removed for 5 h and plasma glucose was measured. Percent inhibitions were calculated as the percent reduction of blood glucose from the average value for vehicle controls. On day 14, blood was collected from the tail vein (20 μl) after the morning glucose measurement and after 5 h fast from a subset of n = 3 rats per treatment group to determine the ambient and fasted exposure of the compounds in circulation. The blood was stored at 4°C in 0.1 M sodium monocitrate for subsequent analysis. Animals were then re-fed their respective diet treatments. On day 20 of treatment at 8 A.M., blood glucose was measured and then animals were euthanized via CO2 asphyxiation. Blood and liver tissue were sampled, processed, and stored at -80°C until analysis.

The EC50 is the concentration needed to bring the measured effect to its halfway point. With `O=C1NC(=O)C(C2CCOc3cc(Oc4ccc(C(F)(F)F)cc4Cl)ccc32)S1` (centres unmarked) [MK-2305], on Rat PPARδ, the EC50 was above 10 µM. For the same molecule, the “% Activation” value at Rat PPARδ (@ 10 μM) is -0.1 @ 10 μM % and -0.08%. In addition, the “% Effect” value on Rat PPARδ (Dose 0.309 nM) is given as -0.01%; at Rat PPARδ (Dose 0.981 nM), 0.01%; at Rat PPARδ (Dose 3.11 nM), -0.001%; at Rat PPARδ (Dose 9.85 nM), -0.01%; at Rat PPARδ (Dose 31.2 nM) it was -0.01%; on Rat PPARδ (Dose 99 nM), 0.01%. The “% Effect” value on Rat PPARδ (Dose 314 nM) is listed as 0.00%; at Rat PPARδ (Dose 995 nM), -0.02%; at Rat PPARδ (Dose 3155 nM) it was -0.04%; on Rat PPARδ (Dose 10000 nM) it was -0.08%. The “Change in plasma insulin from baseline during OGTT (delta insulin)” value was 0.309 and 1.604 and 0.324 and 0.21 and 0.156 and 0.86 and 1.776 and 0.805 and -0.061 and 0.012 in the series on GK rats (Acute, 30 mpk, Time 0, 30 mg/kg); 1.499 and 1.114 and 1.989 and 2.273 and 1.824 and -0.14 and 3.286 and 1.17 and 0.172 and 0.765 with GK rats (Acute, 30 mpk, Time 20, 30 mg/kg); 0.099 and 0.177 and 0.004 and -0.004 and -0.413 and -0.187 and -0.251 and 0.259 and -0.133 and 0.416 in the series with GK rats (Acute, 30 mpk, Time 60, 30 mg/kg); 0 in the series with GK rats (Acute, 30 mpk, Time -60); 0.06 and -0.177 and -0.627 and -0.109 and -0.564 and -0.273 and 0.845 and 0.077 and 0.103 and 0.198 in the series with GK rats (Chronic, 30 mkd, Time 0); 0.473 and 0.233 and 0.417 and 0.389 and 0.164 and 0.072 and 0 and 0.34 and 0.387 and 0.196 with GK rats (Chronic, 30 mkd, Time 20). The “Change in plasma insulin from baseline during OGTT (delta insulin)” value in the series with GK rats (Chronic, 30 mkd, Time 60) is -0.534 and -0.189 and -0.192 and 0.192 and -0.625 and -0.523 and -0.322 and -0.003 and -0.166 and -0.044; with GK rats (Chronic, 30 mkd, Time -60) it was 0. Further, in the series with GK rats (OGTT Day 13, 30 mg/kg acutely PO and chronically in diet, vs. vehicle), the “effect on plasma insulin after a glucose challenge” value is “increased plasma insulin”. Further, the plasma exposure in series [1] (10 mg/kg in feed) is listed as ~ 15 μM; in series [1] (30 mg/kg in feed) it was ~ 39 μM.
